From US20260027116A1, “Methods of Treating Chronic Graft-Versus-Host Disease Following Allogeneic Hematopoietic Stem Cell Transplantation” (Kadmon Corporation, LLC, priority 2022, published 2026)

System: lung function
Assay: Example 1: percent predicted FEV1 change from baseline
Type: in vivo, human
Description: Change From Baseline in Percent Predicted Forced Expiratory Volume in 1 Second (FEV1) at Each Specified Time Points. FEV1 was the volume of air exhaled from the lungs in the first second of a forced expiration as measured by spirometer. Baseline value was defined as valid and last non-missing value obtained within 28 days prior to participant receiving first study medication. EOT visit was performed within 3 days after the participant's last dose of study drug. […] Analysis was performed on mITT population. Here, ‘number analyzed’=participants with available data for each specified category. Here, ‘O’ in the number analyzed field signifies that none of the participants were available for the analysis at the specified time points.

CC(C)NC(=O)COc1cccc(-c2nc(Nc3ccc4[nH]ncc4c3)c3ccccc3n2)c1 [Belumosudil, 2-{3-[4-(1H-indazol-5-ylamino)-2-quinazolinyl]phenoxy}-N-(propan-2-yl) acetamide]
Change From Baseline in Percent Predicted Forced Expiratory Volume in 1 Second (FEV1), Mean (Standard Deviation) (Cohort 1: 200 mg QD, Cycle 3, Day 1): 1.1 (4.8) percent predicted FEV1
Change From Baseline in Percent Predicted Forced Expiratory Volume in 1 Second (FEV1), Mean (Standard Deviation) (Cohort 1: 200 mg QD, Cycle 5, Day 1): −3.3 (8.0) percent predicted FEV1
Change From Baseline in Percent Predicted Forced Expiratory Volume in 1 Second (FEV1), Mean (Standard Deviation) (Cohort 1: 200 mg QD, Cycle 7, Day 1): −3.5 (4.6) percent predicted FEV1
Change From Baseline in Percent Predicted Forced Expiratory Volume in 1 Second (FEV1), Mean (Standard Deviation) (Cohort 1: 200 mg QD, Cycle 9, Day 1): −1.7 (6.8) percent predicted FEV1
Change From Baseline in Percent Predicted Forced Expiratory Volume in 1 Second (FEV1), Mean (Standard Deviation) (Cohort 1: 200 mg QD, Cycle 11, Day 1): −4.3 (5.2) percent predicted FEV1
Change From Baseline in Percent Predicted Forced Expiratory Volume in 1 Second (FEV1), Mean (Standard Deviation) (Cohort 1: 200 mg QD, Cycle 12, Day 1): −2.0 (—) percent predicted FEV1
Change From Baseline in Percent Predicted Forced Expiratory Volume in 1 Second (FEV1), Mean (Standard Deviation) (Cohort 1: 200 mg QD, Cycle 13, Day 1): −5.9 (9.3) percent predicted FEV1
Change From Baseline in Percent Predicted Forced Expiratory Volume in 1 Second (FEV1), Mean (Standard Deviation) (Cohort 1: 200 mg QD, Cycle 14, Day 1): 2.0 (—) percent predicted FEV1
Change From Baseline in Percent Predicted Forced Expiratory Volume in 1 Second (FEV1), Mean (Standard Deviation) (Cohort 1: 200 mg QD, Cycle 15, Day 1): −6.7 (11.7) percent predicted FEV1
Change From Baseline in Percent Predicted Forced Expiratory Volume in 1 Second (FEV1), Mean (Standard Deviation) (Cohort 1: 200 mg QD, Cycle 16, Day 1): 2.0 (—) percent predicted FEV1
Change From Baseline in Percent Predicted Forced Expiratory Volume in 1 Second (FEV1), Mean (Standard Deviation) (Cohort 1: 200 mg QD, Cycle 17, Day 1): −5.3 (9.1) percent predicted FEV1
Change From Baseline in Percent Predicted Forced Expiratory Volume in 1 Second (FEV1), Mean (Standard Deviation) (Cohort 1: 200 mg QD, Cycle 19, Day 1): −5.2 (9.9) percent predicted FEV1
Change From Baseline in Percent Predicted Forced Expiratory Volume in 1 Second (FEV1), Mean (Standard Deviation) (Cohort 1: 200 mg QD, Cycle 25, Day 1): −11.0 (15.6) percent predicted FEV1
Change From Baseline in Percent Predicted Forced Expiratory Volume in 1 Second (FEV1), Mean (Standard Deviation) (Cohort 1: 200 mg QD, Cycle 26, Day 1): 0.0 (—) percent predicted FEV1
Change From Baseline in Percent Predicted Forced Expiratory Volume in 1 Second (FEV1), Mean (Standard Deviation) (Cohort 1: 200 mg QD, Cycle 27, Day 1): −6.5 (13.4) percent predicted FEV1
Change From Baseline in Percent Predicted Forced Expiratory Volume in 1 Second (FEV1), Mean (Standard Deviation) (Cohort 1: 200 mg QD, Cycle 29, Day 1): −0.5 (9.2) percent predicted FEV1
Change From Baseline in Percent Predicted Forced Expiratory Volume in 1 Second (FEV1), Mean (Standard Deviation) (Cohort 1: 200 mg QD, Cycle 30, Day 1): 3.0 (—) percent predicted FEV1
Change From Baseline in Percent Predicted Forced Expiratory Volume in 1 Second (FEV1), Mean (Standard Deviation) (Cohort 1: 200 mg QD, Cycle 31, Day 1): −3.5 (12.0) percent predicted FEV1
Change From Baseline in Percent Predicted Forced Expiratory Volume in 1 Second (FEV1), Mean (Standard Deviation) (Cohort 1: 200 mg QD, Cycle 32, Day 1): 1.0 (—) percent predicted FEV1
Change From Baseline in Percent Predicted Forced Expiratory Volume in 1 Second (FEV1), Mean (Standard Deviation) (Cohort 1: 200 mg QD, Cycle 33, Day 1): 5.0 (5.7) percent predicted FEV1
Change From Baseline in Percent Predicted Forced Expiratory Volume in 1 Second (FEV1), Mean (Standard Deviation) (Cohort 1: 200 mg QD, Cycle 34, Day 1): 2.0 (—) percent predicted FEV1
Change From Baseline in Percent Predicted Forced Expiratory Volume in 1 Second (FEV1), Mean (Standard Deviation) (Cohort 1: 200 mg QD, Cycle 35, Day 1): 5.0 (0.0) percent predicted FEV1
Change From Baseline in Percent Predicted Forced Expiratory Volume in 1 Second (FEV1), Mean (Standard Deviation) (Cohort 1: 200 mg QD, Cycle 36, Day 1): 3.0 (—) percent predicted FEV1
Change From Baseline in Percent Predicted Forced Expiratory Volume in 1 Second (FEV1), Mean (Standard Deviation) (Cohort 1: 200 mg QD, Cycle 37, Day 1): −1.0 (—) percent predicted FEV1
Change From Baseline in Percent Predicted Forced Expiratory Volume in 1 Second (FEV1), Mean (Standard Deviation) (Cohort 1: 200 mg QD, Cycle 38, Day 1): 1.0 (—) percent predicted FEV1
Change From Baseline in Percent Predicted Forced Expiratory Volume in 1 Second (FEV1), Mean (Standard Deviation) (Cohort 1: 200 mg QD, Cycle 39, Day 1): 10.0 (2.8) percent predicted FEV1
Change From Baseline in Percent Predicted Forced Expiratory Volume in 1 Second (FEV1), Mean (Standard Deviation) (Cohort 1: 200 mg QD, Cycle 40, Day 1): −1.0 (—) percent predicted FEV1
Change From Baseline in Percent Predicted Forced Expiratory Volume in 1 Second (FEV1), Mean (Standard Deviation) (Cohort 1: 200 mg QD, Cycle 41, Day 1): 15.0 (—) percent predicted FEV1
Change From Baseline in Percent Predicted Forced Expiratory Volume in 1 Second (FEV1), Mean (Standard Deviation) (Cohort 1: 200 mg QD, Cycle 43, Day 1): 16.0 (—) percent predicted FEV1
Change From Baseline in Percent Predicted Forced Expiratory Volume in 1 Second (FEV1), Mean (Standard Deviation) (Cohort 1: 200 mg QD, Cycle 47, Day 1): 5.0 (—) percent predicted FEV1
Change From Baseline in Percent Predicted Forced Expiratory Volume in 1 Second (FEV1), Mean (Standard Deviation) (Cohort 1: 200 mg QD, Cycle 48, Day 1): 3.0 (—) percent predicted FEV1
Change From Baseline in Percent Predicted Forced Expiratory Volume in 1 Second (FEV1), Mean (Standard Deviation) (Cohort 1: 200 mg QD, Cycle 49, Day 1): 8.0 (—) percent predicted FEV1
Change From Baseline in Percent Predicted Forced Expiratory Volume in 1 Second (FEV1), Mean (Standard Deviation) (Cohort 1: 200 mg QD, Cycle 51, Day 1): 8.0 (—) percent predicted FEV1
Change From Baseline in Percent Predicted Forced Expiratory Volume in 1 Second (FEV1), Mean (Standard Deviation) (Cohort 1: 200 mg QD, Cycle 52, Day 1): 0.0 (—) percent predicted FEV1
Change From Baseline in Percent Predicted Forced Expiratory Volume in 1 Second (FEV1), Mean (Standard Deviation) (Cohort 1: 200 mg QD, Cycle 53, Day 1): 9.0 (—) percent predicted FEV1
Change From Baseline in Percent Predicted Forced Expiratory Volume in 1 Second (FEV1), Mean (Standard Deviation) (Cohort 1: 200 mg QD, Cycle 54, Day 1): 4.0 (—) percent predicted FEV1
Change From Baseline in Percent Predicted Forced Expiratory Volume in 1 Second (FEV1), Mean (Standard Deviation) (Cohort 1: 200 mg QD, Cycle 55, Day 1): 13.0 (—) percent predicted FEV1
Change From Baseline in Percent Predicted Forced Expiratory Volume in 1 Second (FEV1), Mean (Standard Deviation) (Cohort 1: 200 mg QD, Cycle 56, Day 1): 4.0 (—) percent predicted FEV1
Change From Baseline in Percent Predicted Forced Expiratory Volume in 1 Second (FEV1), Mean (Standard Deviation) (Cohort 1: 200 mg QD, Cycle 57, Day 1): 13.0 (—) percent predicted FEV1
Change From Baseline in Percent Predicted Forced Expiratory Volume in 1 Second (FEV1), Mean (Standard Deviation) (Cohort 1: 200 mg QD, Cycle 58, Day 1): 5.0 (—) percent predicted FEV1
Change From Baseline in Percent Predicted Forced Expiratory Volume in 1 Second (FEV1), Mean (Standard Deviation) (Cohort 1: 200 mg QD, Cycle 60, Day 1): 4.0 (—) percent predicted FEV1
Change From Baseline in Percent Predicted Forced Expiratory Volume in 1 Second (FEV1), Mean (Standard Deviation) (Cohort 1: 200 mg QD, Cycle 61, Day 1): 10.0 (—) percent predicted FEV1
Change From Baseline in Percent Predicted Forced Expiratory Volume in 1 Second (FEV1), Mean (Standard Deviation) (Cohort 1: 200 mg QD, Cycle 62, Day 1): 2.0 (—) percent predicted FEV1
Change From Baseline in Percent Predicted Forced Expiratory Volume in 1 Second (FEV1), Mean (Standard Deviation) (Cohort 1: 200 mg QD, Cycle 63, Day 1): 13.0 (—) percent predicted FEV1
Change From Baseline in Percent Predicted Forced Expiratory Volume in 1 Second (FEV1), Mean (Standard Deviation) (Cohort 1: 200 mg QD, Cycle 67, Day 1): 14.0 (—) percent predicted FEV1
Change From Baseline in Percent Predicted Forced Expiratory Volume in 1 Second (FEV1), Mean (Standard Deviation) (Cohort 1: 200 mg QD, EOT): −1.4 (9.0) percent predicted FEV1
Change From Baseline in Percent Predicted Forced Expiratory Volume in 1 Second (FEV1), Mean (Standard Deviation) (Cohort 2: 200 mg BID, Cycle 3, Day 1): −1.8 (7.1) percent predicted FEV1
Change From Baseline in Percent Predicted Forced Expiratory Volume in 1 Second (FEV1), Mean (Standard Deviation) (Cohort 2: 200 mg BID, Cycle 5, Day 1): −5.0 (6.5) percent predicted FEV1
Change From Baseline in Percent Predicted Forced Expiratory Volume in 1 Second (FEV1), Mean (Standard Deviation) (Cohort 2: 200 mg BID, Cycle 7, Day 1): −2.6 (9.4) percent predicted FEV1
Change From Baseline in Percent Predicted Forced Expiratory Volume in 1 Second (FEV1), Mean (Standard Deviation) (Cohort 2: 200 mg BID, Cycle 8, Day 1): 1.0 (—) percent predicted FEV1
Change From Baseline in Percent Predicted Forced Expiratory Volume in 1 Second (FEV1), Mean (Standard Deviation) (Cohort 2: 200 mg BID, Cycle 9, Day 1): −5.9 (11.7) percent predicted FEV1
Change From Baseline in Percent Predicted Forced Expiratory Volume in 1 Second (FEV1), Mean (Standard Deviation) (Cohort 2: 200 mg BID, Cycle 10, Day 1): −6.0 (8.5) percent predicted FEV1
Change From Baseline in Percent Predicted Forced Expiratory Volume in 1 Second (FEV1), Mean (Standard Deviation) (Cohort 2: 200 mg BID, Cycle 11, Day 1): −4.0 (8.5) percent predicted FEV1
Change From Baseline in Percent Predicted Forced Expiratory Volume in 1 Second (FEV1), Mean (Standard Deviation) (Cohort 2: 200 mg BID, Cycle 12, Day 1): −1.0 (—) percent predicted FEV1
Change From Baseline in Percent Predicted Forced Expiratory Volume in 1 Second (FEV1), Mean (Standard Deviation) (Cohort 2: 200 mg BID, Cycle 13, Day 1): −2.5 (14.7) percent predicted FEV1
